Measurements reported in patent publication US11464770B2, “Anticancer pharmaceutical composition” (NATIONAL CANCER CENTER, priority 2016, dated 2022).
Like-named read-outs stand apart in the source and are kept apart here.

Assays:
[1] = test system: lung cancer cell lines (e.g. NCI-H23, NCI-H1229); test: Cell based assay, cell viability (CellTiter-Glo), lung cancer cell lines; conditions: Homo sapiens, 72 hours treatment, CellTiter-Glo
Outline: (§1)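 Luminescent ATP assay quantified surviving cells after three days of treatment. Compound was applied at final concentrations of 0 to 2 μM, starting 24 h after cells were seeded.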

[2] = test system: blood cancer cell lines (e.g. HL-60, Jurkat, Raji, Ramos, Daudi, MOLT-4); test: Cell based assay, cell viability (CellTiter-Glo), blood cancer cell lines; conditions: Homo sapiens
Outline: as §1

brain cancer cell lines = test: Cell based assay, cell viability (CellTiter-Glo), brain cancer cell lines; conditions: Homo sapiens
liver cancer cell lines = test: Cell based assay, cell viability (CellTiter-Glo), liver cancer cell lines; conditions: Homo sapiens, SK-HEP1; SK-HEP-1 cell line
Outline: as §1

[3] = A549 cells, read-out: IC50, lung cancer cell line A549
[4] = DMS 114 cells, read-out: IC50, lung cancer cell line DMS 114
[5] = NCI-H23 cells, read-out: IC50, lung cancer cell line NCI-H23
[6] = NCI-H460 cells, read-out: IC50, lung cancer cell line NCI-H460
[7] = NCI-H522 cells, read-out: IC50, lung cancer cell line NCI-H522
[8] = NCI-H1299 cells, read-out: IC50, lung cancer cell line NCI-H1299
[9] = NCI-H1437 cells, read-out: IC50, lung cancer cell line NCI-H1437
[10] = MV4-11, blood cancer cell line MV-4-11, 72 hours, read-out: IC50, MV-4-11
[11] = blood cancer cell line Daudi, 72 hours, read-out: IC50, Daudi
[12] = blood cancer cell line HL-60, 72 hours, read-out: IC50, HL-60
[13] = blood cancer cell line Jurkat, 72 hours, read-out: IC50, Jurkat
[14] = blood cancer cell line MOLT-4, 72 hours, read-out: IC50, MOLT-4
[15] = blood cancer cell line Raji, 72 hours, read-out: IC50, Raji
[16] = blood cancer cell line Ramos (RA 1), 72 hours, read-out: IC50, Ramos (RA 1)
[17] = blood cancer cell line U-937, 72 hours, read-out: IC50, U-937
[18] = U138-MG, U-138 MG cell line, read-out: IC50, Brain cancer cell line U-138 MG
[19] = T98G cell line, read-out: IC50, Brain cancer cell line T98G
[20] = U-251 MG cell line, read-out: IC50, Brain cancer cell line U-251 MG

SMILES	IC50 [1, 3] [nM]	IC50 [1, 4] [nM]	IC50 ([1]; MRC-5 cells, read-out: IC50) [nM]	IC50 [1, 5] [nM]	IC50 [1, 6] [nM]	IC50 [1, 7] [nM]	IC50 [1, 8] [nM]	IC50 [1, 9] [nM]	IC50 [2, 10] [nM]	IC50 [2, 11] [nM]	IC50 [2, 12] [nM]	IC50 [2, 13] [nM]	IC50 [2, 14] [nM]	IC50 [2, 15] [nM]	IC50 [2, 16] [nM]	IC50 [2, 17] [nM]	IC50 (brain cancer cell lines; [18]) [nM]	IC50 (brain cancer cell lines; [19]) [nM]	IC50 (brain cancer cell lines; [20]) [nM]	IC50 (liver cancer cell lines) [nM]
CC(=O)c1c([S+]([O-])Cc2ccc(SC(F)(F)F)cc2)[nH]c2c(Br)ccc(Cl)c2c1=O (stereo not drawn) [Compound 56, 3-acetyl-8-bromo-5-chloro-2-((4-((trifluoromethyl)thio)benzyl)sulfinyl)quinolin-4(1H)-one]	1700	> 2000	1240	1040	1900	> 2000	> 2000	> 10000	1500	1250	1950	1060	1660	1120	1860	1750	1340	> 10000	1170	1020
CC(=O)c1c([S+]([O-])Cc2ccc(F)c(Cl)c2)[nH]c2c(Br)ccc(Cl)c2c1=O (stereo not drawn) [Compound 31, 3-acetyl-8-bromo-5-chloro-2-((3-chloro-4-fluorobenzyl)sulfinyl)quinolin-4(1H)-one]	1720	> 2000	> 2000	810	1420	> 2000	1220	> 10000	> 2000	1650	1930	940	1350	1100	1830	> 2000	1790	> 10000	1090	–
CC(=O)c1c([S+]([O-])Cc2ccc(OC(F)(F)F)cc2)[nH]c2c(Br)ccc(Cl)c2c1=O (stereo not drawn) [Compound 71, 3-acetyl-8-bromo-5-chloro-2-((4-(trifluoromethoxy)benzyl)sulfinyl)quinolin-4(1H)-one]	1790	> 2000	> 2000	1460	> 2000	> 2000	1640	> 10000	> 2000	> 2000	> 2000	1250	1510	1650	> 2000	> 2000	> 2000	> 10000	> 2000	1180
CC(=O)c1c([S+]([O-])Cc2ccc(C#N)cc2)[nH]c2c(Br)ccc(Cl)c2c1=O (stereo not drawn) [Compound 73, 4-(((3-acetyl-8-bromo-5-chloro-4-oxo-1,4-dihydroquinolin-2-yl)sulfinyl)methyl)benzonitrile]	> 2000	> 2000	> 2000	1520	> 2000	> 2000	> 2000	> 10000	1310	> 2000	1600	> 2000	> 2000	> 2000	> 2000	> 2000	> 2000	> 10000	> 2000	1420
CC(=O)c1c([S+]([O-])Cc2cc(F)cc(S(F)(F)(F)(F)F)c2)[nH]c2c(Br)ccc(Cl)c2c1=O (stereo not drawn) [Compound 76, 3-acetyl-8-bromo-5-chloro-2-((3-fluoro-5-(pentafluoro--sulfanyl)benzyl)sulfinyl)quinolin-4(1H)-one]	> 2000	> 2000	1570	1220	> 2000	> 2000	1670	> 10000	> 2000	1660	> 2000	1200	1620	1350	> 2000	> 2000	> 2000	> 10000	> 2000	1230
CC(=O)c1c([S+]([O-])Cc2c(F)cccc2Cl)[nH]c2c(Br)ccc(Cl)c2c1=O (stereo not drawn) [Compound 74, 3-acetyl-8-bromo-5-chloro-2-((2-chloro-6-fluorobenzyl)sulfinyl)quinolin-4(1H)-one]	> 2000	> 2000	> 2000	1080	> 2000	> 2000	1420	> 10000	1340	> 2000	1980	> 2000	1710	> 2000	> 2000	> 2000	1440	> 10000	> 2000	880
CC(=O)c1c([S+]([O-])Cc2ccc([S+]([O-])C(F)(F)F)cc2)[nH]c2c(Br)ccc(Cl)c2c1=O (stereo not drawn) [Compound 64, 3-acetyl-8-bromo-5-chloro-2-((4-((trifluoromethyl)sulfinyl)benzyl)sulfinyl)quinolin-4(1H)-one]	> 2000	> 2000	> 2000	980	> 2000	> 2000	1350	> 10000	1120	> 2000	1500	1070	1460	1090	1850	> 2000	1430	> 10000	> 2000	870
COc1cc(C[S+]([O-])c2[nH]c3c(Br)ccc(Cl)c3c(=O)c2C(C)=O)cc(OC)c1 (stereo not drawn) [Compound 59, 3-acetyl-8-bromo-5-chloro-2-((3,5-dimethoxybenzyl)sulfinyl)quinolin-4(1H)-one]	> 2000	> 2000	1030	920	1810	> 2000	1450	> 10000	1560	> 2000	1990	1010	1380	1150	> 2000	> 2000	1500	> 10000	1280	910
CC(=O)c1c([S+]([O-])Cc2cccc(F)c2)[nH]c2c(Br)ccc(Cl)c2c1=O (stereo not drawn) [Compound 50, 3-acetyl-8-bromo-5-chloro-2-((3-fluorobenzyl)sulfinyl)quinolin-4(1H)-one]	> 2000	> 2000	> 2000	1140	> 2000	> 2000	1940	> 10000	> 2000	> 2000	> 2000	1200	1660	1410	> 2000	> 2000	> 2000	> 10000	1280	1350
CC(=O)c1c([S+]([O-])Cc2c(F)c(F)c(F)c(F)c2F)[nH]c2c(Br)ccc(Cl)c2c1=O (stereo not drawn) [Compound 78, 3-acetyl-8-bromo-5-chloro-2-(((perfluorophenyl)methyl)sulfinyl)quinolin-4(1H)-one]	> 2000	> 2000	1500	1340	> 2000	> 2000	1810	> 10000	> 2000	> 2000	> 2000	> 2000	> 2000	> 2000	1980	> 2000	> 2000	> 10000	> 2000	–
